Assay results reported in patent publication US9464092B2, “Transient protection of normal cells during chemotherapy” (G1 Therapeutics, Inc., priority 2013, dated 2016).
Read-outs that look alike come from different tables or passages of the source.

Tests used:
CDK2/CyclinA = CDK2/CyclinA (Homo sapiens (Human), UniProt P24941); assay: CDK2/CyclinA kinase assay (Nanosyn, Caliper microfluidic); type: biochemical; conditions: for IC50: read-out: CDK2/CycA IC50
Procedure, shortened: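 Each compound was run as a 12-point single-replicate titration, with staurosporine as reference, using microfluidic (Caliper) separation of phosphorylated peptide.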

[1] = tested on: A2058 (human metastatic melanoma cells - Rb-negative); assay: Cellular proliferation assay (CellTiter-Glo), A2058; type: cell-based; conditions: A2058, 144 h, six days
Procedure: (§1) Cellular proliferation assays were conducted using the following Rb-negative cancer cell lines: H69 (human small cell lung cancer—Rb-negative) cells or A2058 (human metastatic melanoma cells—Rb-negative). These cells were seeded in Costar (Tewksbury, Mass.) 3093 96 well tissue culture treated white walled/clear bottom plates. Cells were treated with the compounds of Table 1 as nine point dose response dilution series from 10 uM to 1 nM. Cells were exposed to compounds and then cell viability was determined after either four (H69) or six (A2058) days as indicated using the CellTiter-Glo® luminescent cell viability assay (CTG; Promega, Madison, Wis., United States of America) following the manufacturer's recommendations. Plates were read on BioTek (Winooski, Vt.) Syngergy2 multi-mode plate reader. The Relative Light Units (RLU) were plotted as a result of variable molar concentration and data was analyzed using Graphpad (LaJolla, Calif.) Prism 5 statistical software to determine the EC50 for each compound.

[2] = tested on: HS68 cells (human skin fibroblast cell line (Rb-positive)); assay: G1 arrest (cellular G1 and S-phase) assay; type: cell-based; conditions: Homo sapiens, Hs68, HS68 cells
Procedure: For determination of cellular fractions in various stages of the cell cycle following various treatments, HS68 cells (human skin fibroblast cell line (Rb-positive)) were stained with propidium iodide staining solution and run on Dako Cyan Flow Cytometer. The fraction of cells in G0-G1 DNA cell cycle versus the fraction in S-phase DNA cell cycle was determined using FlowJo 7.2 0.2 analysis.
The compounds listed in Table 1 were tested for their ability to arrest HS68 cells at the G1 phase of the cell cycle.

CDK4/CyclinD1 = CDK4/CyclinD1 (Homo sapiens (Human), UniProt P11802); assay: CDK4/CyclinD1 kinase assay (Nanosyn, Caliper microfluidic); type: biochemical; conditions: read-out: CDK4/CycD1 IC50
CDK2/CyclinE = CDK2/CyclinE (Homo sapiens (Human), UniProt P24941); assay: CDK2/CyclinE kinase assay (Nanosyn, Caliper microfluidic); type: biochemical; conditions: for IC50: read-out: CDK2/CycE IC50
[3] = tested on: H69 (human small cell lung cancer - Rb-negative) cells; assay: Cellular proliferation assay (CellTiter-Glo), H69; type: cell-based; conditions: NCI-H69, 96 h, four days
Procedure: as §1

[4] = tested on: RB-intact, Cdk4/6-dependent cell line (WM2664 or tHS68); assay: EdU proliferation, RB-intact Cdk4/6-dependent cell line; conditions: 24 hours
CDK6/CyclinD3 = CDK6/CyclinD3 (Homo sapiens (Human), UniProt Q00534); assay: CDK6/CyclinD3 kinase assay (Nanosyn, Caliper microfluidic); type: biochemical; conditions: Table 3; read-out: CDK6/CycD3 IC50
[5] = tested on: RB-negative SCLC cell lines (H69, H82, H209, H345, NCI417, or SHP-77); assay: EdU proliferation, RB-negative SCLC cell lines; conditions: 24 hours
[6] = Mouse pharmacokinetics (oral gavage / intravenous); type: in vivo, mice; conditions: mouse
bone marrow progenitors = assay: Carboplatin-induced cytotoxicity in bone marrow (EdU); type: in vivo, FVB/n mice; conditions: 150 mg/kg oral gavage plus 90 mg/kg carboplatin i.p., 24 hours
Procedure: To assess the effect of transient CDK4/6 inhibition by Compound GG on carboplatin-induced cytotoxicity in the bone marrow, FVB/n mice (n=3 per group) were treated with vehicle control, 90 mg/kg carboplatin by intraperitoneal injection, or 150 mg/kg Compound GG by oral gavage plus 90 mg/kg carboplatin by intraperitoneal injection. 24 hours after treatment bone marrow was harvested and the percent of cycling bone marrow progenitors was measured by EdU incorporation as explained earlier. […] EdU incorporation in control animals was normalized to 100% and compared to EdU incorporation for bone marrow from carboplatin treated animals or carboplatin and Compound GG treated animals.

HSPCs (bone marrow) = assay: HSPC proliferation in bone marrow by EdU incorporation after oral gavage; type: in vivo, mice
Procedure: Mice were then sacrificed at the indicated times (0, 12, 24, 36, or 48 hours following compound administration), and bone marrow was harvested (n=3 mice per time point), as previously described (Johnson et al. J. Clin. Invest. (2010) 120(7), 2528-2536). Four hours before the bone marrow was harvested, mice were treated with 100 μg of EdU by intraperitoneal injection (Invitrogen). Bone marrow mononuclear cells were harvested and immunophenotyped using previously described methods and percent EdU positive cells were then determined (Johnson et al. J. Clin. Invest. (2010) 120(7), 2528-2536). In brief, HSPCs were identified by expression of lineage markers (Lin-), Sca1 (S+), and c-Kit (K+).
Four hours before animals were sacrificed and the bone marrow was harvested, mice were treated with 100 μg of EdU by intraperitoneal injection. Three mice per group were sacrificed at 12 hours and the remaining three animals per group were sacrificed at 24 hours. Results are shown in FIG. 6A as the ratio of EdU positive cells for treated animals at 12 or 24 hour time points compared to control.
Further experiments were completed with Compound T examining dose response and longer periods of compound treatment. […] […].
Both compounds were administered at 150 mg/kg by oral gavage. One hour prior to harvesting bone marrow, EdU was IP injected to label cycling cells. Bone marrow was harvested at 12, 24, 36, and 48 hours after compound treatment and the percentage of EdU positive HSPC cells was determined at each time point.

CDK4/CyclinD1, sequence (P11802 whole entry, species assumed): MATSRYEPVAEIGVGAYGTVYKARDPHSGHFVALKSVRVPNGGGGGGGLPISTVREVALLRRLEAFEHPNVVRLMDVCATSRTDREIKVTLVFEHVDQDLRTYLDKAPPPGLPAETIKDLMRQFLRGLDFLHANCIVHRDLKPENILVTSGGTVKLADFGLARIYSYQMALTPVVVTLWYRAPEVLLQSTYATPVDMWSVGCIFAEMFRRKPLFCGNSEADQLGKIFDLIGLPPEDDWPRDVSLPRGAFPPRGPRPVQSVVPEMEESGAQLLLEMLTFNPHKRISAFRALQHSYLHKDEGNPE
CDK4/CyclinD1, sequence (P24385 whole entry partner, species assumed): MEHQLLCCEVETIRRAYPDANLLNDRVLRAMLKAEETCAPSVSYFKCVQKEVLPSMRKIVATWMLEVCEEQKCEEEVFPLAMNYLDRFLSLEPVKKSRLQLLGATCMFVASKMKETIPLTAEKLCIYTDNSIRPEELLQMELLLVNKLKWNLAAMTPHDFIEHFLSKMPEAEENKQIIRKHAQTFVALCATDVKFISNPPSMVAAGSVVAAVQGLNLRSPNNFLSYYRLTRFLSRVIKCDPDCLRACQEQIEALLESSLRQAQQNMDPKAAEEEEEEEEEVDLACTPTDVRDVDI
CDK6/CyclinD3, sequence (Q00534 whole entry, species assumed): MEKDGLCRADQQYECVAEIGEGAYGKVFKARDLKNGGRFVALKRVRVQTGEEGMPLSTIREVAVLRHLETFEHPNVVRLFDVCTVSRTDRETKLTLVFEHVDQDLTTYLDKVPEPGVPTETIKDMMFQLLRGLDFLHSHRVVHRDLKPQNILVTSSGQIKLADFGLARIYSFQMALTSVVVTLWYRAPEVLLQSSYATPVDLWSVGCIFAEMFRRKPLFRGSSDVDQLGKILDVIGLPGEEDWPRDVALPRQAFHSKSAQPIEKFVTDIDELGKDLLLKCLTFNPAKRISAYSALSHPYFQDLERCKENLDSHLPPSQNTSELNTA
CDK6/CyclinD3, sequence (P30281 whole entry partner, species assumed): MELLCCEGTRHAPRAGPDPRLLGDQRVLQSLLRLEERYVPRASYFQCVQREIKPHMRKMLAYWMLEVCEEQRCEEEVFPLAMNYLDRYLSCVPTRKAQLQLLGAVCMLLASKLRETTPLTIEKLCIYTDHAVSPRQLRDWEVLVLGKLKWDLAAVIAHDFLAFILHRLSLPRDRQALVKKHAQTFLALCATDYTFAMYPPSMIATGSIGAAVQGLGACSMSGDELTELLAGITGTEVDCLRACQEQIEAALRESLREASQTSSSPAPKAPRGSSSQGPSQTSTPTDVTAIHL

Q: What does the source list for `CN1CCN(C(=O)c2ccc(Nc3ncc4cc5n(c4n3)C3(CCCC3)CNC5=O)nc2)CC1` [BBB]?
A: Fold Selectivity (CDK2/CycA/CDK4) (CDK2/CyclinA; Table 2): 31; IC50 (CDK2/CyclinA; Table 2): 85 nM; EC50 [1]: > 3000 nM; EC50 [2]: 230 nM; IC50 (CDK4/CyclinD1; Table 2): 2.8 nM; Fold Selectivity (CDK2/CycE/CDK4) (CDK2/CyclinE; Table 2): 68; IC50 (CDK2/CyclinE; Table 2): 187 nM; EC50 [3]: > 3000 nM

Q: With `CC(C)N1CCN(c2ccc(Nc3ncc4cc5n(c4n3)C3(CCCCC3)CNC5=O)nc2)CC1` [Compound GG, 2′-((5-(4-isopropylpiperazin-1-yl)pyridin-2-yl)amino)-7′,8′-dihydro-6′H-spiro[cyclohexane-1,9′-pyrazino[1′,2′:1,5]pyrrolo[2,3-d]pyrimidin]-6′-one] as the molecule, how does the “effect on proliferation (EdU, percent of cells in S-phase)” value [4] read?
A: inhibits the Rb-positive cell line (tHS68)

Q: And the “Fold Selectivity (CDK2/CycA/CDK4)” value (CDK2/CyclinA; Table 2)?
A: 1425

Q: And the IC50 (CDK2/CyclinA; Table 2)?
A: 1510 nM

Q: What about the IC50 (CDK2/CyclinA; Table 3) of the same molecule?
A: 1510 nM

Q: What about the IC50 (CDK6/CyclinD3) of the same molecule?
A: 4.7 nM

Q: And the “effect on proliferation (EdU, percent of cells in S-phase)” value [5]?
A: does not affect the growth of the Rb-negative cell lines

Q: And the F [6]?
A: 52%

Q: What about the half-life ([6]; plasma, po, 30 mg/kg, 30 mg/kg oral gavage, read-out: t1/2 p.o. (converted)) of the same molecule?
A: 3.5 h

Q: What about the half-life ([6]; plasma, po, 30 mg/kg, read-out: plasma half-life following oral administration) of the same molecule?
A: 3 to 5 h

Q: What about the bioavailability ([6]; plasma, po, 30 mg/kg, read-out: oral bioavailability (F (%))) of the same molecule?
A: 52 to 80%

Q: And the AUC(0-inf) ([6]; plasma, iv, 10 mg/kg i.v.)?
A: 1.1 µM·h

Q: What about the clearance ([6]; plasma, iv, 10 mg/kg i.v.) of the same molecule?
A: 82 mL/min/kg

Q: And the Vd ([6]; plasma, iv, 10 mg/kg i.v., read-out: Vss)?
A: 7.5 L/kg

Q: What about the AUC ([6]; plasma, 30 mg/kg oral gavage) of the same molecule?
A: 1.9 µM·h

Q: What about the Cmax ([6]; plasma, 30 mg/kg oral gavage) of the same molecule?
A: 1900 nM

Q: What about the Tmax ([6]; plasma, 30 mg/kg oral gavage) of the same molecule?
A: 1 h

Q: What about the IC50 (CDK4/CyclinD1; Table 2) of the same molecule?
A: 1 nM

Q: And the IC50 (CDK4/CyclinD1; Table 3)?
A: 1.06 nM

Q: What about the “protection of cycling bone marrow progenitors (EdU)” value (bone marrow progenitors) of the same molecule?
A: significant protection of bone marrow progenitors

Q: What about the “Fold Selectivity CDK2/CDK4” value (CDK2/CyclinE; CDK2/CycE IC50 divided by CDK4/CycD1 IC50) of the same molecule?
A: 3377

Q: What about the “Fold Selectivity (CDK2/CycE/CDK4)” value (CDK2/CyclinE; Table 2) of the same molecule?
A: 3377

Q: And the IC50 (CDK2/CyclinE; Table 2)?
A: 3580 nM

Q: What about the IC50 (CDK2/CyclinE; Table 3) of the same molecule?
A: 3580 nM

Q: And the “EdU incorporation into HSPCs at 12 and 24 hours compared to control” value (HSPCs (bone marrow); 150 mg/kg oral gavage)?
A: reduction in EdU incorporation at 12 hours which was starting to return to normal at 24 hours

Q: And the “G1-arrest of bone marrow stem cells (HSPC)” value (HSPCs (bone marrow); oral gavage, mice)?
A: dose dependent, transient, and reversible G1-arrest
